Activity calls are given as the source filed them. How the calls were made is not given here.
Test system: CCRIS mutagenicity, Ames/micronucleus/aberration tests
Assay: CCRIS mutagenicity studies
[1] = Test System: AMES SALMONELLA TYPHIMURIUM, Strain/Indicator: TA98, Metabolic Activation: NONE, Method: STANDARD PLATE
[2] = Test System: AMES SALMONELLA TYPHIMURIUM, Strain/Indicator: TA100, Metabolic Activation: NONE, Method: STANDARD PLATE

Question: What does the source list for `O=[N+]([O-])c1ccc2c(c1)Cc1cc(O)ccc1-2`?
Answer: mutagenic call (Test System: AMES SALMONELLA TYPHIMURIUM, Strain/Indicator: TA98, Metabolic Activation: NONE, Method: PREINCUBATION): active; positive; mutagenic call (Test System: AMES SALMONELLA TYPHIMURIUM, Strain/Indicator: TA98, Metabolic Activation: S-9, Method: PREINCUBATION): active; positive

Question: For `c1ccc2c(c1)-c1cc3ccc4ccccc4c3cc1C1OC21` (stereo unspecified), which mutagenic call [1] is on record?
Answer: inactive; negative

Question: What about the mutagenic call [2] of the same molecule?
Answer: inactive; negative

Question: What about the mutagenic call (Test System: AMES SALMONELLA TYPHIMURIUM, Strain/Indicator: TA1537, Metabolic Activation: NONE, Method: STANDARD PLATE) of the same molecule?
Answer: active; positive

Question: What about the mutagenic call (Test System: CHINESE HAMSTER V-79, Strain/Indicator: V-79/8-AZAGUANINE, Metabolic Activation: NONE, Method: STANDARD PLATE) of the same molecule?
Answer: active; positive

Question: For `Cc1ccc(N(CCO)CCO)cc1`, which mutagenic call (Test System: AMES SALMONELLA TYPHIMURIUM, Strain/Indicator: TA1535, Metabolic Activation: RAT, LIVER, S-9, AROCLOR 1254 (2.5%), Method: PREINCUBATION) is on record?
Answer: active; positive

Question: What about the mutagenic call (Test System: Mouse lymphoma, Strain/Indicator: L5178Y (tk+/tk-), Metabolic Activation: None, Method: Suspension/plate) of the same molecule?
Answer: inactive; negative

Question: What about the mutagenic call (Test System: Mouse lymphoma, Strain/Indicator: L5178Y (tk+/tk-), Metabolic Activation: Rat, Liver, S-9, Aroclor 1254, Method: Suspension/plate) of the same molecule?
Answer: inconclusive (previous evaluation equivocal)

Question: Which mutagenic call (Test System: AMES SALMONELLA TYPHIMURIUM, Strain/Indicator: TA98, Metabolic Activation: MOUSE, LIVER, S-9, Method: STANDARD PLATE) does the source give for `C=CCCCCCCCC` here?
Answer: inactive; negative

Question: What about the mutagenic call [1] of the same molecule?
Answer: inactive; negative

Question: And the mutagenic call (Test System: AMES SALMONELLA TYPHIMURIUM, Strain/Indicator: TA100, Metabolic Activation: MOUSE, LIVER, S-9, Method: STANDARD PLATE)?
Answer: inactive; negative

Question: What about the mutagenic call [2] of the same molecule?
Answer: inactive; negative

Question: What about the mutagenic call (Test System: AMES SALMONELLA TYPHIMURIUM, Strain/Indicator: TA1535, Metabolic Activation: NONE, Method: STANDARD PLATE) of the same molecule?
Answer: inactive; negative

Question: What about the mutagenic call (Test System: AMES SALMONELLA TYPHIMURIUM, Strain/Indicator: TA1538, Metabolic Activation: NONE, Method: STANDARD PLATE) of the same molecule?
Answer: inactive; negative

Question: Which mutagenic call (Test System: CHINESE HAMSTER V-79, Strain/Indicator: V-79/OUABAIN, Metabolic Activation: CELL-MEDIATED, Method: STANDARD PLATE) does the source give for `Cc1c2c(c(C)c3c1ccc1ccccc13)[C@@H]1OC1[C@@H](O)[C@@H]2O` (stereo partly specified) here?
Answer: active; positive

Question: `C=C1C[C@@]23CC[C@H]4[C@@](C)(CCC[C@@]4(C)C(=O)O)[C@@H]2CC[C@@H]1C3` was tested. Which mutagenic call (Test System: AMES SALMONELLA TYPHIMURIUM, Strain/Indicator: TM677, Metabolic Activation: RAT, LIVER, S-9, AROCLOR 1254, Method: PREINCUBATION) did it give?
Answer: inactive; negative

Question: With `C[n+]1ccccc1-c1cccc[n+]1C` as the molecule, how does the mutagenic call (Test System: AMES SALMONELLA TYPHIMURIUM, Strain/Indicator: TA97, Metabolic Activation: RAT, LIVER, S-9, PHENOBARBITAL, Method: STANDARD PLATE) read?
Answer: active; positive

Question: And the mutagenic call (Test System: AMES SALMONELLA TYPHIMURIUM, Strain/Indicator: TA98, Metabolic Activation: RAT, LIVER, S-9, PHENOBARBITAL, Method: STANDARD PLATE)?
Answer: active; positive

Question: And the mutagenic call (Test System: AMES SALMONELLA TYPHIMURIUM, Strain/Indicator: TA100, Metabolic Activation: RAT, LIVER, S-9, PHENOBARBITAL, Method: STANDARD PLATE)?
Answer: active; positive

Question: What about the mutagenic call (Test System: AMES SALMONELLA TYPHIMURIUM, Strain/Indicator: TA1535, Metabolic Activation: RAT, LIVER, S-9, PHENOBARBITAL, Method: STANDARD PLATE) of the same molecule?
Answer: inactive; negative

Question: And the mutagenic call (Test System: AMES SALMONELLA TYPHIMURIUM, Strain/Indicator: TA1537, Metabolic Activation: RAT, LIVER, S-9, PHENOBARBITAL, Method: STANDARD PLATE)?
Answer: inactive; negative

Question: What about the mutagenic call (Test System: AMES SALMONELLA TYPHIMURIUM, Strain/Indicator: TA1538, Metabolic Activation: RAT, LIVER, S-9, PHENOBARBITAL, Method: STANDARD PLATE) of the same molecule?
Answer: inactive; negative

Question: Which mutagenic call (Test System: AMES SALMONELLA TYPHIMURIUM, Strain/Indicator: TA97, Metabolic Activation: NONE, Method: STANDARD PLATE) does the source give for `O=C1c2ccccc2C(=O)N1SC1CCCCC1` here?
Answer: inactive; negative

Question: What about the mutagenic call (Test System: AMES SALMONELLA TYPHIMURIUM, Strain/Indicator: TA97, Metabolic Activation: RAT LIVER S-9, DELOR 103 (4% OR 10%), Method: STANDARD PLATE) of the same molecule?
Answer: inactive; negative

Question: What about the mutagenic call [1] of the same molecule?
Answer: inactive; negative

Question: And the mutagenic call (Test System: AMES SALMONELLA TYPHIMURIUM, Strain/Indicator: TA98, Metabolic Activation: RAT LIVER S-9, DELOR 103 (4% OR 10%), Method: STANDARD PLATE)?
Answer: inactive; negative

Question: And the mutagenic call [2]?
Answer: inactive; negative

Question: What about the mutagenic call (Test System: AMES SALMONELLA TYPHIMURIUM, Strain/Indicator: TA100, Metabolic Activation: RAT LIVER S-9, DELOR 103 (4% OR 10%), Method: STANDARD PLATE) of the same molecule?
Answer: inactive; negative

Question: What about the mutagenic call (Test System: AMES SALMONELLA TYPHIMURIUM, Strain/Indicator: TA102, Metabolic Activation: NONE, Method: STANDARD PLATE) of the same molecule?
Answer: inactive; negative

Question: What about the mutagenic call (Test System: AMES SALMONELLA TYPHIMURIUM, Strain/Indicator: TA102, Metabolic Activation: RAT LIVER S-9, DELOR 103 (4% OR 10%), Method: STANDARD PLATE) of the same molecule?
Answer: inactive; negative

Source: PubChem BioAssay AID1259407 (Chemical Carcinogenesis Research Information System (CCRIS), 2018)
